ChEMBL document CHEMBL5537181 (J Med Chem, 2024)
Calls of active or inactive are those of the source. The calls are words filed in the database; no cut-off is given here.

Experiments:
Rattus norvegicus = assay: Analgesic activity in Chronic constriction injury rat model assessed as decrease in hyperalgesia at 300 microg/kg,IM administrated every 2 hrs and measured after 24 hrs; assay type: functional, organism-based; details: dose 300.0 µg/kg
[1] = target: Neuronal acetylcholine receptor; alpha9/alpha10 (Homo sapiens, UniProt Q9GZZ6+Q9UGM1); assay: Antagonist activity at human alpha9alpha10 nAChR expressed in acetylcholine-induced Xenopus laevis oocytes assessed as inhibition of acetylcholine-induced current by two electrode voltage-clamp assay; assay type: cell-based, Oocyte
Neuronal acetylcholine receptor; alpha9/alpha10, sequence (Q9UGM1 whole entry): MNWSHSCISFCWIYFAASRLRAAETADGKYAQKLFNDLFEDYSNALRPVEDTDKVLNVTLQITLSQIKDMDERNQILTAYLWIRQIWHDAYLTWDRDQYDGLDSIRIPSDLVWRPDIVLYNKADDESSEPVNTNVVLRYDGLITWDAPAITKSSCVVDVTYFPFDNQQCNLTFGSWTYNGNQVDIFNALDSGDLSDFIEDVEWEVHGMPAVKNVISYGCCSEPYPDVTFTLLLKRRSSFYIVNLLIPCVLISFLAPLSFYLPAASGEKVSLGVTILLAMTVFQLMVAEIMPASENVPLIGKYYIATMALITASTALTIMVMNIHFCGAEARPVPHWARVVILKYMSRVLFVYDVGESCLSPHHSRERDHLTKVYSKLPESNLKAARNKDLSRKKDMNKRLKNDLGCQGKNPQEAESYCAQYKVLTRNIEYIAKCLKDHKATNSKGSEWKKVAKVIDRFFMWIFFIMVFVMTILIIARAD
Neuronal acetylcholine receptor; alpha9/alpha10, sequence (Q9GZZ6 whole entry): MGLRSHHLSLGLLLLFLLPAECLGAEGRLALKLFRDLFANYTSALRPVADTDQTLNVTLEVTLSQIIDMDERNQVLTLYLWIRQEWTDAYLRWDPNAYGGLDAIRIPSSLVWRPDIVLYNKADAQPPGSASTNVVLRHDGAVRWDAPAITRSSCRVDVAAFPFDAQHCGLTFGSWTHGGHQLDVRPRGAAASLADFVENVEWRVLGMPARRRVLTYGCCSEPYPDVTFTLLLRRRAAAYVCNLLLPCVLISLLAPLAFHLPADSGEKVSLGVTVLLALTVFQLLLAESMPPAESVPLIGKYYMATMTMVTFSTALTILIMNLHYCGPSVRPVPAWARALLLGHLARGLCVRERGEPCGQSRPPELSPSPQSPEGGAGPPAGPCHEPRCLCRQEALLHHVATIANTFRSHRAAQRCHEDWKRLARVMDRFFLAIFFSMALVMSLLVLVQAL

[2] = target: Voltage-dependent N-type calcium channel subunit alpha-1B (Homo sapiens, UniProt Q00975); assay: Inhibition of human Cav2.2 channel transfected in HEK293T cells co-expressed with human GABAB receptor assessed as inhibition of Cav2.2-mediated Ba2+ current measured for 3 to 5 days by whole-cell patch clamp assay; assay type: cell-based
Voltage-dependent N-type calcium channel subunit alpha-1B, sequence (Q00975 whole entry): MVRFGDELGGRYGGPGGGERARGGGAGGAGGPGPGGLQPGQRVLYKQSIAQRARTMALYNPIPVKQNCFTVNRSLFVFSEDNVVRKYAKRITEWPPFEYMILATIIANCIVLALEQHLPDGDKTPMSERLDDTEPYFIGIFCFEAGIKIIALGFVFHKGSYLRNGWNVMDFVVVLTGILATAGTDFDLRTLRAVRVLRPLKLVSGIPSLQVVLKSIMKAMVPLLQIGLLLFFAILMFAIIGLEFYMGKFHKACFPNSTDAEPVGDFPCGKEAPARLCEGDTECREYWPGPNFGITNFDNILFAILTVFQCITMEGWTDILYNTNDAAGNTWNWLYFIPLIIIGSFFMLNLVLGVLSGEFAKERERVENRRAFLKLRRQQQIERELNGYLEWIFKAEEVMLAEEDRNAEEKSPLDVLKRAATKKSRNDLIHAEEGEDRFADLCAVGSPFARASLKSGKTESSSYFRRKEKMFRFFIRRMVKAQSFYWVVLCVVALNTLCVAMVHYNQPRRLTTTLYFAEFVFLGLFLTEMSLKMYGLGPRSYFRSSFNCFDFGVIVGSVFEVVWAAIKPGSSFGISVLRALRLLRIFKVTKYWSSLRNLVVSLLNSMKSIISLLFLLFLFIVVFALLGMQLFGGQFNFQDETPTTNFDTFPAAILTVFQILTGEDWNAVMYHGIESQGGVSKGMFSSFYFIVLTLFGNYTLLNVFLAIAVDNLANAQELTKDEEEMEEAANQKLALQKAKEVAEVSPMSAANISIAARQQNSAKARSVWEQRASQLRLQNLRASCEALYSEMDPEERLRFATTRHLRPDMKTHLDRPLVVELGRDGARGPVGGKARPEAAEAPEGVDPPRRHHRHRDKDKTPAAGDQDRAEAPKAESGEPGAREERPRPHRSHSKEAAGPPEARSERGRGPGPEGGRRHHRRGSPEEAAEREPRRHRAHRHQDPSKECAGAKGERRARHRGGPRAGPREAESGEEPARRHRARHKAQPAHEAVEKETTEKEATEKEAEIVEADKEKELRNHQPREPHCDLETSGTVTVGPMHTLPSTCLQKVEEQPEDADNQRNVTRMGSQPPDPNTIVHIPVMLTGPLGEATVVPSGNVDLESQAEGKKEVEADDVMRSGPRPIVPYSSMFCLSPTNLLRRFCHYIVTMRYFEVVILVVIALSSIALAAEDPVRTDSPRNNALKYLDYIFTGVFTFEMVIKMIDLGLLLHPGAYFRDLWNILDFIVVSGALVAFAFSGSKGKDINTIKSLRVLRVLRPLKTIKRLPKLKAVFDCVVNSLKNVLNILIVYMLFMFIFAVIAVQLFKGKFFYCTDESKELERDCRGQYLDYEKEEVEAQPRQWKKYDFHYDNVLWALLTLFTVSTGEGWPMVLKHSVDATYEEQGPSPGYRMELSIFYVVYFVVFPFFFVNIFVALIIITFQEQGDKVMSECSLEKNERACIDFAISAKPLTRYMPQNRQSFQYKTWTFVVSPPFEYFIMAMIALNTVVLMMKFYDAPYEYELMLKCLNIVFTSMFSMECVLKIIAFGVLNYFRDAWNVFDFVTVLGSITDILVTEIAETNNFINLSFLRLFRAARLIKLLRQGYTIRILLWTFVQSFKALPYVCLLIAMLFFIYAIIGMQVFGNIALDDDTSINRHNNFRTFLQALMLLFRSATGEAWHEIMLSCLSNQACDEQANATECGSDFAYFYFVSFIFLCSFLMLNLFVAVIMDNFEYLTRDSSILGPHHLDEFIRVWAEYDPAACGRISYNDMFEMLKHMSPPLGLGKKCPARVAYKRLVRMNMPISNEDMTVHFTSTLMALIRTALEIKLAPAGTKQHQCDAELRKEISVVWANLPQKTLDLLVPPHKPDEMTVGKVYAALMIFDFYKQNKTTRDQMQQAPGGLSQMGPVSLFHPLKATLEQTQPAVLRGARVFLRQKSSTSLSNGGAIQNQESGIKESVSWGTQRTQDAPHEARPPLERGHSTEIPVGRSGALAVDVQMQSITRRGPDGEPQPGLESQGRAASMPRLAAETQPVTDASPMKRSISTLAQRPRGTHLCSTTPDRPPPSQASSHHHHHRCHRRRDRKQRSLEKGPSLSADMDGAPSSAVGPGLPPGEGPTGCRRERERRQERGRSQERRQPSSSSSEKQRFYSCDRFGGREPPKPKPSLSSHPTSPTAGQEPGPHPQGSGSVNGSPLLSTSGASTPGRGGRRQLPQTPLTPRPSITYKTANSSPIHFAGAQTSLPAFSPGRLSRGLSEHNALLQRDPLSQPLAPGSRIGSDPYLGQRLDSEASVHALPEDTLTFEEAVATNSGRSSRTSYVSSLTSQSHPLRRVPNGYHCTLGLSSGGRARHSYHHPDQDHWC

In the case of C[C@@H](O)[C@@H]1NC(=O)[C@@H]2CSSC[C@@H](C(=O)N[C@@H](Cc3ccc(O)cc3)C(=O)O)NC(=O)[C@H](CCC(N)=O)NC(=O)[C@H](Cc3ccc(O)c(I)c3)NC(=O)[C@H](CCCNC(=N)N)NC(=O)[C@H](CSSC[C@H](NC(=O)CN)C(=O)N2)NC(=O)[C@H](CCCNC(N)=O)NC(=O)[C@@H]2CCCN2C(=O)[C@H](CC(=O)O)NC1=O, the Activity (Rattus norvegicus) is reported as “Active”.
CC[C@H](C)[C@@H]1NC(=O)[C@H](CCCNC(=N)N)NC(=O)[C@H](CCCNC(=N)N)NC(=O)[C@@H]2CSSC[C@H](NC(=O)[C@H](N)[C@H](C)O)C(=O)N[C@@H](CCCNC(=N)N)C(=O)N[C@@H](CO)C(=O)N[C@@H](CO)C(=O)NCC(=O)N[C@@H](CCCNC(=N)N)C(=O)N[C@@H](Cc3ccc(O)cc3)C(=O)N[C@H](CSSC[C@H](C(=O)N[C@H](C(N)=O)C(C)C)NC(=O)[C@H](C)NC(=O)[C@H](CC(=O)O)NC(=O)[C@H]([C@@H](C)O)NC1=O)C(=O)N[C@@H](CCCNC(=N)N)C(=O)N[C@@H](CO)C(=O)N1CCC[C@H]1C(=O)N[C@@H](Cc1ccc(O)cc1)C(=O)N[C@@H](CC(=O)O)C(=O)N[C@@H](CCCNC(=N)N)C(=O)N[C@@H](CCCNC(=N)N)C(=O)N[C@@H](CCCNC(=N)N)C(=O)N[C@@H](CCCNC(=N)N)C(=O)N[C@@H](Cc1ccc(O)cc1)C(=O)N2 gave an IC50 [1] of 116 nM and an IC50 [2] of 3 nM.
